According to ChEMBL document CHEMBL1201862, “PubChem BioAssay data set” (2004):
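Protocol summary: plate cells (96-well), add compound at 5 concentrations, incubate 48 h, interpolate endpoints linearly. The concentration for 50% growth inhibition is given as GI50.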 Calls of active or inactive are those of the source. Rule as the data show it: active = GI50 up to about 1.1 µM and inactive = higher.

What was measured:
Assay in all cases: inhibition of tumour cell growth, NCI panel, 48 h
[1] = test system: 786-0
[2] = test system: A498
[3] = test system: A549
[4] = test system: ACHN
[5] = test system: CAKI-1
[6] = test system: CCRF-CEM
[7] = test system: COLO 205
[8] = test system: DLD-1
[9] = test system: DMS-114
[10] = test system: DMS-273
[11] = test system: EKVX
[12] = test system: HCC 2998
[13] = test system: HCT-116
[14] = test system: HCT-15
[15] = test system: HL-60
[16] = test system: HOP-18
[17] = test system: HOP-62
[18] = test system: HOP-92
[19] = test system: HT-29
[20] = test system: IGROV-1
[21] = test system: K562
[22] = test system: KM-20L2
[23] = test system: KM12
[24] = test system: LOX IMVI
[25] = test system: LXFL 529
[26] = test system: M14
[27] = test system: M19-MEL
[28] = test system: Malme-3M
[29] = test system: NCI-H226
[30] = test system: NCI-H23
[31] = test system: NCI-H460
[32] = test system: NCI-H522
[33] = test system: OVCAR-3
[34] = test system: OVCAR-4
[35] = test system: OVCAR-5
[36] = test system: OVCAR-8
[37] = test system: RXF 393
[38] = test system: RXF 631
[39] = test system: SF-268
[40] = test system: SF-295
[41] = test system: SF-539
[42] = test system: SK-MEL-28
[43] = test system: SK-MEL-2
[44] = test system: SK-MEL-5
[45] = test system: SK-OV-3
[46] = test system: SN12C
[47] = test system: SNB-19
[48] = test system: SNB-75
[49] = test system: SNB-78
[50] = test system: SW-620
[51] = test system: TK-10
[52] = test system: U-251
[53] = test system: UACC-257
[54] = test system: UACC-62
[55] = test system: UO-31
[56] = test system: BT-549
[57] = test system: DU-145
[58] = test system: Hs-578T
[59] = test system: MCF7
[60] = test system: MDA-MB-231
[61] = test system: MDA-MB-435
[62] = test system: MDA-N
[63] = test system: MOLT-4
[64] = test system: NCI/ADR-RES
[65] = test system: PC-3
[66] = test system: RPMI-8226
[67] = test system: SR
[68] = test system: T47D
[69] = test system: XF498

## O=C(Cc1nc(-c2ccccc2)cc(=O)n1-c1ccccc1Cl)c1ccncc1
[1]
  GI50: > 100000 nM (inactive)
[2]
  GI50: > 100000 nM (inactive)
[3]
  GI50: > 100000 nM (inactive)
[4]
  GI50: > 100000 nM (inactive)
[5]
  GI50: > 100000 nM (inactive)
[6]
  GI50: > 100000 nM (inactive)
[7]
  GI50: > 100000 nM (inactive)
[8]
  GI50: > 100000 nM (inactive)
[9]
  GI50: > 100000 nM (inactive)
[10]
  GI50: > 100000 nM (inactive)
[11]
  GI50: > 100000 nM (inactive)
[12]
  GI50: > 100000 nM (inactive)
[13]
  GI50: > 100000 nM (inactive)
[14]
  GI50: > 100000 nM
[15]
  GI50: 9100 nM (inactive)
[16]
  GI50: > 100000 nM (inactive)
[17]
  GI50: > 100000 nM (inactive)
[18]
  GI50: > 100000 nM (inactive)
[19]
  GI50: > 100000 nM (inactive)
[20]
  GI50: > 100000 nM (inactive)
[21]
  GI50: > 100000 nM (inactive)
[22]
  GI50: > 100000 nM (inactive)
[23]
  GI50: > 100000 nM (inactive)
[24]
  GI50: > 100000 nM (inactive)
[25]
  GI50: > 100000 nM (inactive)
[26]
  GI50: > 100000 nM (inactive)
[27]
  GI50: > 100000 nM (inactive)
[28]
  GI50: > 100000 nM (inactive)
[29]
  GI50: > 100000 nM (inactive)
[30]
  GI50: > 100000 nM (inactive)
[31]
  GI50: > 100000 nM (inactive)
[32]
  GI50: > 100000 nM (inactive)
[33]
  GI50: > 100000 nM (inactive)
[34]
  GI50: > 100000 nM (inactive)
[35]
  GI50: > 100000 nM (inactive)
[36]
  GI50: > 100000 nM (inactive)
[37]
  GI50: > 100000 nM (inactive)
[38]
  GI50: > 100000 nM (inactive)
[39]
  GI50: > 100000 nM (inactive)
[40]
  GI50: > 100000 nM (inactive)
[41]
  GI50: > 100000 nM (inactive)
[42]
  GI50: > 100000 nM (inactive)
[43]
  GI50: > 100000 nM (inactive)
[44]
  GI50: > 100000 nM (inactive)
[45]
  GI50: > 100000 nM (inactive)
[46]
  GI50: > 100000 nM (inactive)
[47]
  GI50: > 100000 nM (inactive)
[48]
  GI50: 25200 nM (inactive)
[49]
  GI50: > 100000 nM (inactive)
[50]
  GI50: > 100000 nM (inactive)
[51]
  GI50: > 100000 nM (inactive)
[52]
  GI50: > 100000 nM (inactive)
[53]
  GI50: > 100000 nM (inactive)
[54]
  GI50: > 100000 nM (inactive)
[55]
  GI50: > 100000 nM (inactive)

## CC[C@@]1(O)C(=O)OCc2c1cc1n(c2=O)Cc2c-1nc1ccccc1c2Cl
[1]
  GI50: < 10 nM (active)
[2]
  GI50: 23.7 nM (active)
[3]
  GI50: < 10 nM (active)
[4]
  GI50: < 10 nM (active)
[56]
  GI50: < 13.6 nM (active)
[5]
  GI50: < 10 nM (active)
[6]
  GI50: < 10 nM (active)
[7]
  GI50: 658 nM (active)
[8]
  GI50: 877 nM (active)
[9]
  GI50: < 10.4 nM (active)
[10]
  GI50: < 10 nM (active)
[57]
  GI50: < 10 nM (active)
[11]
  GI50: 659 nM (active)
[12]
  GI50: 521 nM (active)
[13]
  GI50: 16.8 nM (active)
[14]
  GI50: 267 nM
[15]
  GI50: < 10 nM (active)
[16]
  GI50: 59.8 nM (active)
[17]
  GI50: < 10 nM (active)
[18]
  GI50: 72.4 nM (active)
[19]
  GI50: 46.1 nM (active)
[58]
  GI50: 4520 nM (inactive)
[20]
  GI50: 211 nM (active)
[21]
  GI50: 32.9 nM (active)
[22]
  GI50: 216 nM (active)
[23]
  GI50: 124 nM (active)
[24]
  GI50: < 10 nM (active)
[25]
  GI50: 935 nM (active)
[26]
  GI50: < 13.3 nM (active)
[27]
  GI50: 80 nM (active)
[59]
  GI50: < 10 nM (active)
[60]
  GI50: 8320 nM (inactive)
[61]
  GI50: 98.4 nM (active)
[62]
  GI50: 69 nM (active)
[63]
  GI50: < 10 nM (active)
[28]
  GI50: 239 nM (active)
[29]
  GI50: < 10 nM (active)
[30]
  GI50: < 10 nM (active)
[31]
  GI50: < 10 nM (active)
[32]
  GI50: < 12.7 nM (active)
[64]
  GI50: < 10 nM (active)
[33]
  GI50: 296 nM (active)
[34]
  GI50: 560 nM (active)
[35]
  GI50: 81.1 nM (active)
[36]
  GI50: 14.6 nM (active)
[65]
  GI50: < 21.4 nM (active)
[66]
  GI50: < 15.1 nM (active)
[37]
  GI50: < 13.2 nM (active)
[39]
  GI50: < 10 nM (active)
[40]
  GI50: < 10 nM (active)
[41]
  GI50: < 10 nM (active)
[42]
  GI50: 204 nM (active)
[43]
  GI50: 396 nM (active)
[44]
  GI50: < 14.1 nM (active)
[45]
  GI50: 21.7 nM (active)
[46]
  GI50: < 10 nM (active)
[47]
  GI50: < 10.7 nM (active)
[48]
  GI50: 12.3 nM (active)
[49]
  GI50: 2650 nM (inactive)
[67]
  GI50: < 10 nM (active)
[50]
  GI50: 34.8 nM (active)
[68]
  GI50: < 10 nM (active)
[51]
  GI50: 6210 nM (inactive)
[52]
  GI50: < 10 nM (active)
[53]
  GI50: 112 nM (active)
[54]
  GI50: < 10 nM (active)
[55]
  GI50: < 10 nM (active)
[69]
  GI50: 76.7 nM (active)
